Data: article PMC10692375 (Acta Pharmaceutica Sinica. B, 2023)

System: 22Rv1 xenografts
Experiment: 22Rv1 xenograft model
Type: in vivo, mice
Conditions: DD1-Br 0.1 mg/kg i.p., ENZ 10 mg/kg p.o., alone or combined, 5 times a week

In the case of `CNC(=O)c1ccc(N2C(=S)N(c3ccc(C#N)c(C(F)(F)F)c3)C(=O)C2(C)C)cc1F` [ENZ, enzalutamide], the tumor growth was “did not show significant effect”.
